This note sets out measurements from US11767286B2, “Phenylpropionate compound, preparation method for same, and applications thereof” (SUZHOU PHARMAVAN CO., LTD, priority 2017, dated 2023).

Data set [1] deals with platelet aggregation induced with ADP. In words: Maximum platelet aggregation rate of rabbits, induced with ADP. The format is cell-based. The following applies: rabbit plasma, 4 mg/kg as printed, n=3; for inhibition at 4 mg/kg: Oryctolagus cuniculus, Platelet. As for the experimental part: (§1) Effects on maximum platelet aggregation rate of rabbits: 3 Rabbits were anesthetized, and blood was collected from the heart to obtain 14 parts of plasma for each rabbit (1 ml per part of plasma). 7 Parts were induced with ADP to allow platelet aggregation, and 7 parts were induced with a platelet activating factor. After the induction, a solvent, positive control drug aspirin, and 5 samples to be trialed were separately added to the plasma, and maximum platelet aggregation rate was detected with a platelet aggregation meter. The trials were repeated 3 times, and an average was taken. Detected indicator: maximum platelet aggregation rate.
(§2) Table 4 lists results of effects of phenylpropionate compounds (4 mg/kg) on platelet aggregation rate of rabbits (n=3).

In data set [2] the test system is rats with acute cerebral ischemia-reperfusion. Nature of the data set: Cerebral infarction area of rats with acute cerebral ischemia-reperfusion (MCAO, suture method). Format: in vivo, SD rats. Details: Cerebral Infarction Area: unit not given here. The following applies: n=5; for Cerebral Infarction Area: 4 mg/kg iv 2 h after reperfusion (2 h MCAO), sampled 4 h after administration; for inhibition in vivo at 4 mg/kg: Rattus norvegicus, 4 h, 4 mg/kg iv 2 h after reperfusion, vs solvent control, read-out: Percentage of Cerebral Infarction Area Reduction. As for the experimental part:
(§3) Trial method: Effects on inflammatory factors and blood viscosity of rats with acute cerebral ischemia-reperfusion: 70 Male SD rats underwent an MACO surgery by a suture method, and after the surgery, alive rats were randomly grouped (into 7 groups, the number of successful animals in each group was guaranteed to be 6 to 8). Blood perfusion was recovered 2 h after MCAO, and corresponding trial medicaments were intravenously injected 2 h after blood reperfusion. 4 hours after the administration, blood was collected and the rats were sacrificed to take out brain tissues. The brain tissues and part of the blood were centrifuged to collect serum which was detected for inflammatory factors, and part of the blood was detected for blood viscosity by using a blood viscometer. Detected indicators: cerebral infarction area; inflammatory factors IL-1β and TNF-α; and blood viscosity.
Table 1 lists results of effects of phenylpropionate compounds (4 mg/kg) on cerebral infarction area of rats with acute cerebral ischemia (n=5).

Data set [3] has as its system TNF-α. In words: Inflammatory factor TNF-α in blood and brain tissues of rats with acute cerebral ischemia-reperfusion. The format is in vivo, SD rats. Conditions: 4 mg/kg iv 2 h after reperfusion; 4 h after administration; n=5. As to the method: as §3
(§4) Table 3 lists results of effects of phenylpropionate compounds (4 mg/kg) on inflammatory factors in blood and brain tissues of rats (n=5).

The test system of data set [4] is platelet aggregation induced with a platelet activating factor. In words: Maximum platelet aggregation rate of rabbits, induced with PAF. Format: cell-based. The following applies: rabbit plasma, 4 mg/kg as printed; for inhibition at 4 mg/kg: Oryctolagus cuniculus, Platelet, n=3, read-out: Inhibiton rate on Aggregation; for Maximum Aggregation Rate: n=3. As to the method:
as §1, §2

Data set [5] relates to IL-1β. Nature of the data set: Inflammatory factor IL-1β in blood and brain tissues of rats with acute cerebral ischemia-reperfusion. Format: in vivo, SD rats. The following applies: 4 mg/kg iv 2 h after reperfusion; 4 h after administration; n=5. As for the experimental part: as §3, §4
Data set [6] relates to rats with acute cerebral ischemia-reperfusion. In words: Blood viscosity of rats with acute cerebral ischemia-reperfusion (blood viscometer). Format: in vivo, SD rats. Conditions: 4 mg/kg iv 2 h after reperfusion; blood 4 h after administration; n=5. Details: unit not given here. As to the method: as §3
Table 2 lists results of effects of phenylpropionate compounds (4 mg/kg) on blood viscosity of rats (n=5).

Data set [7] in a line: Distribution in brain: plasma and intracerebral concentrations after intravenous injection. Format: in vivo. Conditions: both sexes, rat, rats, 4 mg/kg iv; for Kp at 10 min / Kp at 60 min / Kp at 180 min: brain/plasma, read-out: Brain/Blood Concentration Ratio. As for the experimental part: In this example, Compounds A to E, D-bornyl ferulate, and D-tanshinol borneol ester were measured for distribution in brain. Structures of D-bornyl ferulate (Patent Application No.: 201510243181.5) and D-tanshinol borneol ester compounds are as follows:
Method for testing distribution in brain: 42 rats with a weight range of 200±20 g were taken. The rats were randomly divided into 7 groups, with 6 rats per group, half male and half female. Rats were fasted with free access to water for 12 h and then intravenously injected with 4 mg/kg of a compound. Rats in the 3 groups were sacrificed through femoral artery bleeding and collected for blood 10 min, 60 min, 180 min after administration, respectively. Brains were taken out, 0.2 g was weighted, and 1 mL of pure water was added for homogenizing. The blood samples and brain homogenate samples were stored at −20° C.
Distribution of Compounds A to E, and D-bornyl ferulate and D-tanshinol borneol ester compounds in brain: Data on concentrations of Compounds A to E, D-bornyl ferulate, and D-tanshinol borneol ester in plasma and intracerebral in rats intravenously injected with 4 mg/kg of Compounds A to E, D-bornyl ferulate, and D-tanshinol borneol ester are listed in Table 9.

The mark [8] stands for this setting: brain, read-out: Mean Intracerebral Concentration.
Where [9] appears, read: plasma, read-out: Mean Plasma Concentration.

Molecules are shown by their SMILES. Like-named read-outs stand apart in the source and are kept apart here.

For `CC(=O)Oc1ccccc1C(=O)O` [Aspirin, aspirin, reference compound], in data set [1], the inhibition at 4 mg/kg was found to be 54.1% and the “Maximum Aggregation Rate” value worked out at 14.8 ± 3.99 %. For the same compound, in data set [2], the “Cerebral Infarction Area” value is on record as 22.7 ± 4.05 and the inhibition in vivo at 4 mg/kg turned out to be 38%. Besides, the TNF-α in data set [3] stood at 647 ± 45.2 ng/L. Moreover, in data set [4], the inhibition at 4 mg/kg worked out at 40.8% and the “Maximum Aggregation Rate” value was 41.3 ± 1.53 %. In data set [5], this compound gave an IL-1β of 62.9 ± 11.5 ng/L. Also, in data set [6], the “Blood viscosity, High Shear” value stood at 2.64 ± 0.199 and the “Blood viscosity, Low Shear” value came out at 12.2 ± 0.742.
For `CC1(C)[C@@H]2CC[C@@]1(C)[C@@H](OC(=O)CCc1ccc(O)c(OC(F)(F)F)c1)C2` [Compound E], in data set [1], the inhibition at 4 mg/kg was found to be 46.2% and the “Maximum Aggregation Rate” value worked out at 17.7 ± 5.46 %. Further, in data set [2], the “Cerebral Infarction Area” value worked out at 19.8 ± 3.61 and the inhibition in vivo at 4 mg/kg was found to be 46%. In addition, in data set [7], the Kp at 10 min was determined as 3.4, the Kp at 60 min turned out to be 3.5 and the Kp at 180 min came out at 3.7. In data set [7] (setting [8]), the concentration at 10 min came out at 3020 ± 527 ng/g, the concentration at 60 min turned out to be 959 ± 337 ng/g and the concentration at 180 min came out at 314 ± 56.6 ng/g. Moreover, in data set [7] (setting [9]), the concentration at 10 min worked out at 887 ± 222 ng/mL, the concentration at 60 min amounted to 274 ± 102 ng/mL and the concentration at 180 min stood at 84.6 ± 42.3 ng/mL. The TNF-α in data set [3] is recorded as 573 ± 43.0 ng/L. Also, in data set [4], the inhibition at 4 mg/kg was 39.1% and the “Maximum Aggregation Rate” value stood at 43.5 ± 8.4 %. Besides, the IL-1β in data set [5] came out at 64.3 ± 8.1 ng/L. In data set [6], the “Blood viscosity, High Shear” value amounted to 2.73 ± 0.405 and the “Blood viscosity, Low Shear” value is 13.5 ± 1.183.
Regarding `COc1cc(CCC(=O)O[C@H]2C[C@H]3CC[C@]2(C)C3(C)C)c(Br)cc1O` [Compound D], in data set [1], the inhibition at 4 mg/kg came to 55.3% and the “Maximum Aggregation Rate” value is on record as 14.7 ± 7.42 %. In data set [2], the “Cerebral Infarction Area” value is listed as 19.4 ± 4.61 and the inhibition in vivo at 4 mg/kg turned out to be 47.1%. Also, in data set [7], the Kp at 10 min amounted to 1.6, the Kp at 60 min worked out at 4.6 and the Kp at 180 min is 4. Besides, in data set [7] (setting [8]), the concentration at 10 min turned out to be 2260 ± 323 ng/g, the concentration at 60 min came to 1430 ± 285 ng/g and the concentration at 180 min amounted to 485 ± 125 ng/g. Further, in data set [7] (setting [9]), the concentration at 10 min turned out to be 1400 ± 236 ng/mL, the concentration at 60 min was determined as 312 ± 115 ng/mL and the concentration at 180 min amounted to 120 ± 22.7 ng/mL. This compound also showed a TNF-α in data set [3] of 562 ± 34.2 ng/L. Moreover, in data set [4], the inhibition at 4 mg/kg was 34.6% and the “Maximum Aggregation Rate” value turned out to be 46.7 ± 9.8 %. The compound further showed an IL-1β in data set [5] of 53.4 ± 8.9 ng/L. Moreover, in data set [6], the “Blood viscosity, High Shear” value stood at 2.63 ± 0.312 and the “Blood viscosity, Low Shear” value was 13.3 ± 0.354.
With `COc1cc(CCC(=O)O[C@H]2C[C@H]3CC[C@]2(C)C3(C)C)cc(O)c1O` [Compound B], in data set [1], the inhibition at 4 mg/kg stood at 46.8% and the “Maximum Aggregation Rate” value is on record as 17.5 ± 2.84 %. In data set [2], the “Cerebral Infarction Area” value stood at 18.7 ± 7.16 and the inhibition in vivo at 4 mg/kg worked out at 49%. In data set [7], the Kp at 10 min came to 1.6, the Kp at 60 min came to 4.5 and the Kp at 180 min is 1.8. In addition, in data set [7] (setting [8]), the concentration at 10 min amounted to 2490 ± 437 ng/g, the concentration at 60 min came to 1270 ± 234 ng/g and the concentration at 180 min was found to be 247 ± 87.5 ng/g. Moreover, in data set [7] (setting [9]), the concentration at 10 min came to 1530 ± 581 ng/mL, the concentration at 60 min was determined as 285 ± 105 ng/mL and the concentration at 180 min was 136 ± 60.4 ng/mL. Moreover, the TNF-α in data set [3] is 645 ± 42.3 ng/L. Moreover, in data set [4], the inhibition at 4 mg/kg was determined as 55% and the “Maximum Aggregation Rate” value is recorded as 32.1 ± 9.7 %. This compound returned an IL-1β in data set [5] of 63.4 ± 5.6 ng/L. Moreover, in data set [6], the “Blood viscosity, High Shear” value stood at 2.73 ± 0.122 and the “Blood viscosity, Low Shear” value amounted to 13.9 ± 0.134.
